Data on 14 compounds can be found in patent publication US4959482A, “Pyrrolidinone compounds and pharamaceutical compositions containing same” (Biofor, Ltd., priority 1988, dated 1990).

For data set [1] the following is noted: Khimiya Geterotsiklicheskikh Soedinenii, Vol. 12: 1660-1664 (1971); cited from earlier work.
The conditions of data set [2]: U.S. Pat. No. 4,357,345; cited from earlier work.
For data set [3], the system named is Adjuvant arthritis (hind paw edema). The data set is described as follows: Adjuvant Arthritis Assay; Developing. As to conditions: Rattus norvegicus, 96 h, dosed once daily for 4 days in 0.25% methylcellulose, inhibition of hind paw edema on fifth day. It counts as in vivo, female Lewis rats. The method, then:
Anti-Inflammatory: This activity was evaluated via a modification of the Adjuvant Arthritis Assay (AA) described by S. […] This assay measures the ability of the test compound to antagonize local edema, a characteristic of the inflammatory response. […] The left and right rear paws of female Lewis rats (Charles River Laboratories) weighing 160-180 grams each were measured by mercury displacement prior to injection (Day Zero). Adjuvant arthritis was induced in this rat colony by subcutaneous injection of Mycobacterium butyricum (0.75 mg in 0.1 ml light mineral oil, Fisher) using an automated Cornwall syringe. On days 11-15 post-adjuvant the injected animals with 0.25 to 0.75 ml. paw edema were selected and distributed evenly, according to edema size, into control and experimental groups of ten rats each. Vehicle control and drug treatments were assigned to the groups at random. The assay was performed using a variable dose level for each test compound per kilogram per day in 0.25% methylcellulose vehicle. All animals were dosed once daily for 4 days and on the fifth day both hind paw volumes were again measured using mercury displacement. The hind paw edema was determined for each rat by subtracting the hind paw volume measured on Day Zero from the hind paw volume measured on the fifth day of the study. Group means were determined and the drug effect was calculate as percent inhibition of the hind paw edema according to the following equation: [formula] […] The known anti-inflammatory NAPROXEN was also tested for comparison purposes.

The next data set in a line: LD50 (acute toxicity). As to conditions: rat, in vivo; printed after the oral four-day ulcerogenicity study in female Lewis rats.
In data set [4] the test system is Adjuvant arthritis (hind paw edema). Nature of the data set: Adjuvant Arthritis Assay; Immunomodulatory. It counts as in vivo, Lewis female rats. As to conditions: 50 mg/kg, oral, Day 5 to 9; paw edema on Day 15. The method, then: Immunomodulatory: This activity was determined by using a Modified Adjuvant Assay procedure in which female rats were injected with Mycobacterium butyricum to induce hind paw edema. The test compounds were administered orally and the difference in volume between dosed and non-dosed paws was determined.
Lewis female rats were injected in the tail subcutaneously with Mycobacterium butyricum (0.75 mg in 0.1 ml light mineral oil, Fisher) on Day Zero. Prior to injection the volumes of the left and right rear paws were measured by mercury displacement. All rats were dosed orally with vehicle or test compounds on Day 5 to 9 inclusive. The volume of both hind paws were determined on Day 15 and the percent inhibitions were calculated based upon average edema on Day 15 relative to the edema mean in the control group.

In data set [5] the test system is acetylcholine-induced writhing. The data set is described as follows: Acetylcholine Writhing Assay. Type of data set: in vivo, male CD-1 mice. As to conditions: Mus musculus, 0.75 h; oral by gavage, 45 minutes before intraperitoneal acetylcholine; writhes counted for 10 minutes. The procedure: Analgesic: The "Acetylcholine Writhing Assay" (ACH) of Collier et al [Nature; Vol. 204: page 1316 (1964)]was employed. In this study the test compounds were administered orally to mice and 45 minutes later the mice were injected with acetylcholine. The frequency of writhing was counted in each animal and the response elicited in the drug-treated mice was compared with the response of those given acetylcholine alone.
Analgesic activity was evaluated via the mouse acetylcholine writing test using a modification of the procedure described by Collier, et al in Nature (New Biol.) Vol. 204; page 1316 (1964) and Br. J. Pharmacol, Chemother, Vol. 32: page 295 (1968). Each test group consisted of ten male CD-1 mice (Charles River Laboratories) weighing 18-28 grams each. Test compounds suspended in a mixture of 0.25% methylcellulose solution in […] were administered orally by gavage and forty five minutes later the mice were injected intraperitoneally with acetylcholine (0.55 mg/ml in 0.25% methylcellulose). The number of writhes in each group of mice were counted for 10 minutes immediately following the injection of acetylcholine and the percent inhibition was calculated as follows: [formula] Four dose levels were used to calculate the ED50 of the test compound.
(An intraperitoneal irritant provokes the stretching counted in writhing tests.)

Data set [6] has as its system Adjuvant arthritis (paw edema). Nature of the data set: Adjuvant Arthritis Assay; Established. Type of data set: in vivo, rats. As to conditions: Rattus norvegicus, 552 h; oral, once daily on days 19-22 post adjuvant; paw volume on day 23.
Description: In this assay the differences between dosed and non-dosed paw values were determined postadjuvant. […] On day 19 post adjuvant all rats were evenly distributed according to edema size. Doses of treatment or vehicle were administered orally to all rats once daily on days 19-22 inclusive. Final paw volumes were determined on day 23 post adjuvant.
The next data set concerns yeast-induced fever. The data set is described as follows: Antipyretic Evaluation (yeast-induced fever in rats). It counts as in vivo, male Sprague-Dawley rats. As to conditions: 300 mg/kg, oral by gavage nineteen hours after yeast injection. The procedure: Antipyretic: This activity was evaluated by creating a yeast-induced fever in rats according to a modified method of the procedure described by Loux et al in "Toxicology and Applied Pharmacology", Vol. 22: page 672 (1972). In this assay rats injected with yeast in distilled water were dosed with test compounds, aspirin (positive control) and a vehicle (negative control) and the observed differences in body temperature were analyzed statistically.
Antipyretic activity was evaluated using a modification of the test described by Loux et al, in Toxicology and Applied Pharmacology, 22:672 (1972), that is, yeast-induced fever in rats. Each test group consisted of ten male Sprague-Dawley rats (Charles River Laboratories), weighing 180-225 grams each. Eighteen hours prior to compound administration the rats were weighed and body temperatures were recorded. Food was removed with water available ad libitum. […]
Test compounds suspended in 0.25% methylcellulose (0.25% MC) or olive oil were administered orally by gavage nineteen hours following the yeast injection. Body temperatures were taken and recorded one hour after compound administration. […] The mean temperature of the compound-treated groups, positive control group (Aspirin) and negative control group (vehicle) were calculated at 18 hours and 20 hours. The data was analyzed statistically using a paired-samples Student's t-Test.

Bounds are passed on as bounds.

`CC(C)(C)c1cc(C=Cc2ccncc2)cc(C(C)(C)C)c1O` [4-[2-(3',5'-di-tert-butyl-4'-hydroxyphenyl)ethenyl]pyridine]: the “effectiveness in the treatment of tumors” value in data set [1] was “effective in the treatment of tumors”.

In the case of `CC(C)(C)c1cc(C(N)=O)cc(C(C)(C)C)c1O` [4-carboxamido-2,6-di-(tert-butyl)phenol], the anti-inflammatory activity result in data set [2] is reported as “absence of anti-inflammatory activity”. With `CC(C)(C)c1cc(C(=O)c2cc(C(=O)O)ccc2Cl)cc(C(C)(C)C)c1O` [4-(5-carboxy-2-chlorobenzoyl)-2,6-di-(tert-butyl)phenol], the anti-inflammatory activity result in data set [2] is reported as “absence of anti-inflammatory activity”.

In general, ED50 refers to the dose that gives a 50% effect, or the effect in half of the subjects. As a reminder, the LD50 is the dose expected to kill half of the subjects tested. Consider `CC(C)(C)c1cc(N2CCCC2=O)cc(C(C)(C)C)c1O` [Example 1, 1-(3,5-Di-tert-Butyl-4-Hydroxyphenyl)Pyrrolidin-2-One], for which the ED50 turned out to be 21 mg/kg in data set [3], 13 mg/kg in data set [5] and 36 mg/kg in data set [6]. Besides, the LD50 in “LD50 (acute toxicity)” is > 1000 mg/kg. For the same compound, in data set [4], the “% Inhibition (Adjuvant Arthritis Data-Immunomodulatory)” value came out at 39%. As to `CC(C)(C)c1cccc(C(C)(C)C)c1O` [2,6-di-(tert-butyl)phenol], in data set [2], the anti-inflammatory activity entry is listed as “absence of anti-inflammatory activity”. For `CC(C)(C)c1cc(N2CCCCC2=O)cc(C(C)(C)C)c1O` [Example 2, 1-(3,5-Di-tert-Butyl-4-Hydroxyphenyl)Piperidin-2-One], in data set [3], the ED50 was determined as 34 mg/kg.

Take `CC(=O)c1cc(C(C)(C)C)c(O)c(C(C)(C)C)c1` [4-acetyl-2,6-(di-tert-butyl)phenol]: in data set [2], the anti-inflammatory activity entry is reported as “absence of anti-inflammatory activity”. As to `CC(=O)Oc1ccccc1C(=O)O` [Aspirin], in the data set with yeast-induced fever, the “Change in Temperature, 18-20 Hour Period” value is -2.05 °C. With `CCCCCCCCc1cc(C(C)(C)C)c(O)c(C(C)(C)C)c1` [4-n-octyl-2,6-di-(tert-butyl)phenol], the anti-inflammatory activity entry in data set [2] was “absence of anti-inflammatory activity”.

As for `CC(C)(C)c1cc(S(=O)(=O)c2ccccc2)cc(C(C)(C)C)c1O` [2,6-di-(tert-butyl)-4-(phenylsulfonyl)phenol], the anti-inflammatory activity entry in data set [2] is on record as “absence of anti-inflammatory activity”. On to `COc1ccc2cc([C@H](C)C(=O)O)ccc2c1` [NAPROXEN], for which the ED50 was found to be 28 mg/kg in data set [3], 6.2 mg/kg in data set [5] and 28 mg/kg in data set [6]. Take `Cc1cc(C(C)(C)C)c(O)c(C(C)(C)C)c1` [3,5-di(tert-butyl)-4-hydroxytoluene]: in data set [2], the anti-inflammatory activity entry is recorded as “little or no value as an anti-inflammatory agent”. On to `CC(C)(C)c1cc(C(=O)c2ccccc2Cl)cc(C(C)(C)C)c1O` [4-(2-chlorobenzoyl)-2,6-di-(tert-butyl)phenol], for which, in data set [2], the anti-inflammatory activity entry is recorded as “absence of anti-inflammatory activity”.

On to `CC(C)(C)c1cc(C=Cc2ccccn2)cc(C(C)(C)C)c1O` [2-[2-(3',5'-di-tert-butyl-4'-hydroxyphenyl)ethenyl]pyridine], for which the “effectiveness in the treatment of tumors” value in data set [1] is “effective in the treatment of tumors”.
